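Assay format: 96-well plates, 48-hour exposure. The concentration for 50% growth inhibition is given as GI50.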 Active and inactive are the calls of the source. Cut-off read from the data, not from the text of the source: active = GI50 up to about 1.1 µM and inactive = higher.
What was measured:
Experiment in all cases: inhibition of tumour cell growth, NCI panel, 48 h
PC-3 = tested on: PC-3
K562 = tested on: K562
786-0 = tested on: 786-0
SK-OV-3 = tested on: SK-OV-3
T47D = tested on: T47D
CCRF-CEM = tested on: CCRF-CEM
NCI-H226 = tested on: NCI-H226
COLO 205 = tested on: COLO 205
UO-31 = tested on: UO-31
HOP-92 = tested on: HOP-92
SW-620 = tested on: SW-620
HOP-62 = tested on: HOP-62
NCI-H522 = tested on: NCI-H522
MDA-N = tested on: MDA-N
HCT-15 = tested on: HCT-15
HT-29 = tested on: HT-29
OVCAR-4 = tested on: OVCAR-4
SN12C = tested on: SN12C
HCT-116 = tested on: HCT-116
TK-10 = tested on: TK-10

SMILES	GI50 (PC-3)	GI50 (K562)	GI50 (786-0)	GI50 (SK-OV-3)	GI50 (T47D)	GI50 (CCRF-CEM)	GI50 (NCI-H226)	GI50 (COLO 205)	GI50 (UO-31)	GI50 (HOP-92)	GI50 (SW-620)	GI50 (HOP-62)	GI50 (NCI-H522)	GI50 (MDA-N)	GI50 (HCT-15) [µM]	GI50 (HT-29)	GI50 (OVCAR-4)	GI50 (SN12C)	GI50 (HCT-116)	GI50 (TK-10)
CCCCNc1nc(SC)nc2[nH]cnc12	> 100 µM (inactive)	> 100 µM (inactive)	> 100 µM (inactive)	5.82 µM (inactive)	> 100 µM (inactive)	> 100 µM (inactive)	> 100 µM (inactive)	> 100 µM (inactive)	> 100 µM (inactive)	> 59 µM (inactive)	> 100 µM (inactive)	> 100 µM (inactive)	> 100 µM (inactive)	> 100 µM (inactive)	> 100	> 100 µM (inactive)	> 100 µM (inactive)	> 100 µM (inactive)	> 100 µM (inactive)	> 100 µM (inactive)
C=C1C[C@H](O)[C@H](Br)C(C)(C)C12CCC(C)(Cl)C(Br)C2 (stereo not given in full)	0.153 µM (active)	2.44 µM (inactive)	5.48 µM (inactive)	3.03 µM (inactive)	0.746 µM (active)	0.0359 µM (active)	2.27 µM (inactive)	1.02 µM (active)	7.93 µM (inactive)	1.5 µM (inactive)	4.99 µM (inactive)	2.26 µM (inactive)	3.83 µM (inactive)	1.39 µM (inactive)	7.45	0.141 µM (active)	0.635 µM (active)	4.37 µM (inactive)	6.38 µM (inactive)	3.15 µM (inactive)
CCOC(=O)C(Cc1ccc(N(CCCl)CCCl)cc1)NC(=O)CCCN1C(=O)CN=C(c2ccccc2)c2cc(Cl)ccc21 (stereo not given)	11.7 µM (inactive)	6.32 µM (inactive)	10.2 µM (inactive)	> 76.2 µM (inactive)	3.55 µM (inactive)	2.61 µM (inactive)	35.2 µM (inactive)	16.2 µM (inactive)	13.8 µM (inactive)	3.77 µM (inactive)	10.2 µM (inactive)	36.9 µM (inactive)	3.03 µM (inactive)	6.11 µM (inactive)	20.6	15.3 µM (inactive)	18.6 µM (inactive)	4.43 µM (inactive)	21 µM (inactive)	> 66.5 µM (inactive)
C/C=C(\N=C=S)C(=O)OC1C(COC(C)=O)OC([C@]2(O)CC(=O)C(N)=C(C(=O)O)C2=O)C(O)C1OC1CC(OC)C(O)([C@@H](C)OC(=O)[C@@H](C)CC)C(C)O1 (stereo not given in full)	15.7 µM (inactive)	2.11 µM (inactive)	12.3 µM (inactive)	21.5 µM (inactive)	11.2 µM (inactive)	2.4 µM (inactive)	19.4 µM (inactive)	4.71 µM (inactive)	18.2 µM (inactive)	3.45 µM (inactive)	3.01 µM (inactive)	22.1 µM (inactive)	2.17 µM (inactive)	13.2 µM (inactive)	16	8.49 µM (inactive)	4.26 µM (inactive)	15 µM (inactive)	7.83 µM (inactive)	16.7 µM (inactive)
COc1ccc2cc(CN3CCC(C4CCNCC4)CC3)ccc2c1	7.8 µM (inactive)	0.959 µM (active)	1.67 µM (inactive)	10 µM (inactive)	2.33 µM (inactive)	1.96 µM (inactive)	7.93 µM (inactive)	1.69 µM (inactive)	2.45 µM (inactive)	1.79 µM (inactive)	1.82 µM (inactive)	2.67 µM (inactive)	2.17 µM (inactive)	2.02 µM (inactive)	2.28	1.3 µM (inactive)	8.97 µM (inactive)	6.85 µM (inactive)	1.8 µM (inactive)	3.79 µM (inactive)
O=C1CCN/C(=N\C(=O)C(F)(F)F)N1CCc1c[nH]c2ccccc12	> 100 µM (inactive)	> 100 µM (inactive)	> 100 µM (inactive)	> 100 µM (inactive)	> 100 µM (inactive)	> 100 µM (inactive)	> 100 µM (inactive)	> 100 µM (inactive)	> 100 µM (inactive)	> 100 µM (inactive)	> 100 µM (inactive)	> 100 µM (inactive)	> 100 µM (inactive)	> 100 µM (inactive)	> 100	> 100 µM (inactive)	> 100 µM (inactive)	> 100 µM (inactive)	> 100 µM (inactive)	> 100 µM (inactive)
COc1ccc(OC)c(-c2nc3n(c2/C=C2/C(=O)Nc4ccccc42)CCS3)c1	86.5 µM (inactive)	37.4 µM (inactive)	> 100 µM (inactive)	72.9 µM (inactive)	35.1 µM (inactive)	35 µM (inactive)	> 100 µM (inactive)	39.5 µM (inactive)	41.4 µM (inactive)	48.6 µM (inactive)	40.9 µM (inactive)	58.6 µM (inactive)	34 µM (inactive)	18.2 µM (inactive)	42.3	47.6 µM (inactive)	41.5 µM (inactive)	65.8 µM (inactive)	45.2 µM (inactive)	41.2 µM (inactive)
C=C(C)C(=O)/N=C(\N)NC#N	158 µM (inactive)	21.8 µM (inactive)	37.8 µM (inactive)	170 µM (inactive)	14.3 µM (inactive)	23.7 µM (inactive)	145 µM (inactive)	49.2 µM (inactive)	> 62.7 µM (inactive)	14.2 µM (inactive)	19.3 µM (inactive)	> 63.1 µM (inactive)	5.81 µM (inactive)	39.4 µM (inactive)	44.6	62.8 µM (inactive)	19.9 µM (inactive)	36.4 µM (inactive)	31.6 µM (inactive)	41.7 µM (inactive)
C=C1C(=O)OC2/C=C(\CO)C3OC3C3OC3(C)CC(OC(=O)/C(=C/C)CO)C12 (stereo not given)	> 100 µM (inactive)	24.8 µM (inactive)	36.8 µM (inactive)	> 100 µM (inactive)	92.9 µM (inactive)	9.33 µM (inactive)	> 100 µM (inactive)	34.4 µM (inactive)	> 100 µM (inactive)	> 100 µM (inactive)	30.1 µM (inactive)	> 100 µM (inactive)	15.8 µM (inactive)	36.6 µM (inactive)	36.6	54.7 µM (inactive)	45.4 µM (inactive)	> 100 µM (inactive)	35.8 µM (inactive)	> 100 µM (inactive)
CCc1ccc(/C=C/C(=O)C2CN(CC)CCC2(O)/C=C/c2ccc(CC)cc2)cc1 (stereo not given)	3.55 µM (inactive)	2.52 µM (inactive)	1.75 µM (inactive)	12.3 µM (inactive)	4.15 µM (inactive)	1.87 µM (inactive)	4.41 µM (inactive)	2.45 µM (inactive)	3.2 µM (inactive)	1.71 µM (inactive)	1.88 µM (inactive)	1.91 µM (inactive)	2.59 µM (inactive)	3.23 µM (inactive)	3.24	1.83 µM (inactive)	4.2 µM (inactive)	4.09 µM (inactive)	1.79 µM (inactive)	2.34 µM (inactive)
N#Cc1cccc(N2C(=O)C3C4C=CC(C3C2=O)C2C(=O)N(c3cccc(C#N)c3)C(=O)C42)c1 (stereo not given)	> 100 µM (inactive)	46.9 µM (inactive)	33.1 µM (inactive)	17.1 µM (inactive)	> 31.6 µM (inactive)	44.8 µM (inactive)	62.1 µM (inactive)	> 63.1 µM (inactive)	49.1 µM (inactive)	15.2 µM (inactive)	> 100 µM (inactive)	18.3 µM (inactive)	22.7 µM (inactive)	> 100 µM (inactive)	> 63.1	> 63.1 µM (inactive)	> 63.1 µM (inactive)	> 39.8 µM (inactive)	21 µM (inactive)	26.5 µM (inactive)
CC(C)=CC[C@]12CCN[C@H]1N(S(=O)(=O)c1ccccc1)c1ccccc12	13.5 µM (inactive)	16.7 µM (inactive)	15.6 µM (inactive)	12.7 µM (inactive)	15.2 µM (inactive)	23.6 µM (inactive)	14.9 µM (inactive)	15.1 µM (inactive)	13.8 µM (inactive)	12.2 µM (inactive)	18.4 µM (inactive)	15.3 µM (inactive)	13.9 µM (inactive)	15.2 µM (inactive)	15.6	18.5 µM (inactive)	14.3 µM (inactive)	13.6 µM (inactive)	14.4 µM (inactive)	34.9 µM (inactive)
CC(=O)OCC1OC(n2c3c(c(-c4cccc5ccccc45)c(C#N)c2=S)CCCC3)C(OC(C)=O)C(OC(C)=O)C1OC(C)=O (stereo not given)	27.7 µM (inactive)	> 100 µM (inactive)	> 100 µM (inactive)	> 100 µM (inactive)	> 100 µM (inactive)	> 100 µM (inactive)	> 100 µM (inactive)	> 100 µM (inactive)	31.3 µM (inactive)	0.112 µM (active)	> 100 µM (inactive)	> 100 µM (inactive)	> 100 µM (inactive)	> 100 µM (inactive)	> 100	> 100 µM (inactive)	> 100 µM (inactive)	> 100 µM (inactive)	> 100 µM (inactive)	> 100 µM (inactive)
Oc1cc(-c2ccc(F)cc2)nc2ncc(Cl)cc12	20.2 µM (inactive)	4.21 µM (inactive)	32.7 µM (inactive)	45.5 µM (inactive)	48.4 µM (inactive)	18.7 µM (inactive)	3.03 µM (inactive)	22.3 µM (inactive)	> 85.9 µM (inactive)	2.94 µM (inactive)	11.1 µM (inactive)	32.2 µM (inactive)	10.5 µM (inactive)	2.94 µM (inactive)	4.62	26.5 µM (inactive)	> 77.3 µM (inactive)	> 84.1 µM (inactive)	9.51 µM (inactive)	> 83.4 µM (inactive)
